Like-named read-outs stand apart in the source and are kept apart here.
Assays:
23SK skin cells = test: Flow cytometry cell cycle distribution; format: cell-based, human
Source text: FIGS. 5A-5D are cell histograms showing the results from flow cytometry analysis of chemoprotective polyamine-treated 23SK skin cells.
In FIG. 5, cell histograms showing the results from flow cytometry analysis of chemoprotective polyamine-treated 23SK skin cells are shown. […] The transient nature of the cell cycle block induced by chemoprotective polyamines is believed to be an important aspect of their efficacy, i.e., their ability to block cell cycle progression in stem cells during the course of chemo- or radiotherapy, and the resumption of normal stem cell division after a given cancer therapy course has been completed.

[1] = tested on: p21 protein in 23SK human skin cells; test: p21 induction by western analysis; format: cell-based; details: 23SK cells, 30 hr exposure
Protocol: FIGS. 3A and 3B illustrate the level of induced p21 protein seen in diploid human fibroblasts after a 30 hr exposure to each of the indicated chemoprotective polyamines. […] In these experiments, the 23SK human skin cells were exposed for 30 hr to an “IC80” dose of each of the indicated chemoprotective polyamines and then lysed. Cell extracts were then prepared in order to measure p21 levels by western analysis (FIG. 3A).
FIG. 3 illustrates that chemoprotective polyamines are able to induce expression of the negative cell cycle regulatory protein, p21, after exposing the human skin cells to the polyamine molecules. […] In these experiments, the 23SK human skin cells were exposed for 30 hr to an “IC80” dose of each of the indicated chemoprotective polyamines and then lysed. Cell extracts were then prepared in order to measure p21 levels by western analysis (FIG. 3A). Although the ability of modified polyamines to induce p21 is known in the literature (Kramer, D. et al., Cancer Res. 59:1278-1286, 1999), it is a novel aspect of this invention that those chemoprotective polyamines with longer aliphatic “arms” were better able to induce expression of p21 as shown in FIG. 4.

cell cycle = details: Jeitner and Renton 1996; Snyder and Grdina 2000; Kramer et al. 1997; cited from earlier work
[2] = tested on: radiation-induced dermatitis on backs of rats; test: Radiation-induced dermatitis in rat skin model; format: in vivo; details: for protective activity against radiation-induced dermatitis: 370 mM, vehicle 50:30:20, scored 13 days later
Protocol: To determine efficacy of chemoprotective polyamines in preventing radiation-induced dermatitis, adult rats were topically treated with the compounds before and after radiation treatment. Rats were exposed to medically relevant levels of radiation that could induce clinical radiation dermatitis. Sprague Dawley rats (Harlan Spraque Dawley) at 4-6 weeks-old were anesthetized with sodium pentobarbital at 40 mg/kg body weight (Sigma, St. Louis, Mo.) prior to radiation exposure. A defined area (1.5×2 cm) on the backs of rats was irradiated using a Mark I, Model 30, Cs 137 irradiator (J. L. Sheppard & Associates). Before topical drug treatment or irradiation, the backs of the rats were clipped using an Oster clipper at the closest setting. The rest of the body was protected from radiation exposure using a lead shield (2.5 cm thick). A dose response study was initially performed to reproduce relevant dermatitis that matched the Grade (I-IV) scale used to score the severity of radiation-induced dermatitis in humans. The severity of the dermatitis was scored 12-13 days post-irradiation at the peak of the dermal inflammation. […] Radiation dermatitis of Grade II-III was considered most clinically relevant, so a radiation dose of 8.7 Gy was typically used in the rats. The clipped back region on the rats was treated topically with aminothiol in delivery vehicle four times in the two hours immediately preceding irradiation (at −2 hr, −1 hr, −30 min, and −10 min; irradiation was at 0 min
The polyamines or amino thiols were prepared in a delivery vehicle, consisting of ethanol:propylene glycol:water, ranging from 0:95:5 to 50:30:20 depending upon the solubility characteristics of the topical molecule, and the degree of dermal penetration desired. A vehicle composed of an emulsion formed by sonication of ‘nonionic liposomes’ and isopropyl myristate was also used (Jayaraman, S. et al., J. Pharm. Sci. 85:1082-1084, 1996). In a commonly used protocol, 220 μl of topical drug/vehicle was applied to an area ˜2 cm×3 cm on the back in the 2 hr just prior to irradiation. Rats treated with only the delivery vehicle served as controls. Twelve to thirteen days post-radiation, the rats were evaluated for dermatitis within the irradiated area. In early studies, a modified scoring scale described by Masuda K. et al., Int. J. Radiation Oncol. Biol. Phys: 12, 1645 (1986) was used, and in later studies, including those described here, a simplified scoring system was used in which the percentage of the irradiated, rectangular field covered with scrab material was estimated between 0 and 100% to provide scores on a scale between 0 and 100.
This example relates to the use of a rat skin model to evaluate the efficacy of two amino thiol compounds in preventing radiation-induced dermatitis. To test whether topically-applied aminothiols could prevent the radiodermatitis caused by external beam radiotherapy, the rodent model described in Example 3 was slightly modified. Briefly, the radiodermatitis model involved: • i) shaving the backs of 6-7 week old rats or mice; • ii) applying four topical doses of aminothiol in a delivery vehicle composed of ethanol:propylene glycol (PG):water in the 2 hr prior to irradiation; • iii) irradiating a small, 3 cm^2 (1.5×2 cm) area on the animal's back (through a window in a lead plate) with 8.7 Gy of γ radiation from a Cs^137 source; and • iv) scoring the severity of the dermatitis 12-13 days later, at the peak of the inflammatory skin reaction. Radiodermatitis severity was scored by estimating the percentage of the irradiated field that was covered by scrab material.
Methods: Treatments were applied as described in Example 6.

[3] = tested on: primary, diploid fibroblasts isolated from human skin; test: Growth inhibition of primary diploid human skin fibroblasts; format: cell-based; details: 50% inhibition of human skin fibroblast growth
Protocol: The in vitro growth inhibitory effects of certain of the chemoprotective polyamines of the invention were measured using primary, diploid fibroblasts isolated from human skin.

DNA = DNA binding/precipitation from solution
Source text: The chemoprotective polyamines provided herein are also able to bind, denature and precipitate DNA from solution. As the skilled artisan will appreciate, as the concentration of polyamine is increased, there is a point where polyamine binding to helical B-DNA induces single-stranded ‘bubbles’ and conversion to other forms of DNA structure, such as Z-DNA (Feuerstein, B. et al., Nuc. Acids Res. 17:6883-6892, 1989; Basu, H. and Marton, L., Biochem. J. 244:243-246, 1987), as well as precipitating the DNA from solution.

[4] = Expt. 1, read-out: IC50 (uM), Expt. 1
[5] = Expt. 2, read-out: IC50 (uM), Expt. 2
[6] = Expt. 1, read-out: DNA Bind/ppt. IC50 (uM), Expt. 1
[7] = Expt. 2, read-out: DNA Bind/ppt. IC50 (uM), Expt. 2

IC50 (DNA; [6]) [µM] | Compound | Cell Cycle Distribution At IC80 Dose (%) G1 (23SK skin cells) [%] | Cell Cycle Distribution At IC80 Dose (%) G2/M (23SK skin cells) [%] | Cell Cycle Distribution At IC80 Dose (%) S (23SK skin cells) [%] | p21 fold-induction at IC80 Dose [1] [fold] | IC50 [3, 4] [µM] | IC50 [3, 5] [µM] | also measured
 | CN[C@H]1CCc2cc(OC)c(OC)c(OC)c2-c2ccc(OC)c(=O)cc21 [Colcemid, reference compound] | 8 | 81 | 11 | 3.31 |  |  | 
 | CCNCCCNCCCNCCCNCC [DENSPM] |  |  |  |  |  |  | cell cycle arrest reported in literature (cell cycle): G1-specific cell cycle block that was reversible
 | CC(C)S [Mechanism Structure 1, reference compound] |  |  |  |  |  |  | protective activity against radiation-induced dermatitis ([2]; 8.7 Gy): neither molecule exhibited discernable protective activity
 | CNCCCNC [Mechanism Structure 2, reference compound] |  |  |  |  |  |  | protective activity against radiation-induced dermatitis ([2]; 8.7 Gy): neither molecule exhibited discernable protective activity
88 | CCNCCCCNCCCCNCC=C(CNCC)CNCCCCNCCCCNCC [PrC-111] | 60 | 14 | 25 | 2.22 | 980 | 180 | 
93 | CCNCCCCNCCCCNCCCCNCC=C(CNCC)CNCCCCNCCCCNCCCCNCC [PrC-112] | 61 | 16 | 23 | 2.45 | 2.53 |  | 
35 | CCNCCCCNCCCCNCCCCNCCCCNCC=C(CNCC)CNCCCCNCCCCNCCCCNCCCCNCC [PrC-113] | 77 | 14 | 8 | 3.21 | 0.33 | 0.21 | 
94 | CCNCCCCNC/C=C(/CS)CNCCCCNCC [PrC-114] |  |  |  |  | 850 | 240 | 
37 | CCNCCCCNCCCCNC/C=C(/CS)CNCCCCNCCCCNCC [PrC-115] |  |  |  |  | 4100 | 1090 | IC50 (DNA; [7]): 83 µM
82 | CCNCCCCNCCCCNCCCCNC/C=C(/CS)CNCCCCNCCCCNCCCCNCC [PrC-116] | 66 | 23 | 11 | 2.32 | 5.8 |  | IC50 (DNA; [7]): 63 µM
58 | CCNCCCCNCCCCNCCCCNCCCCNC/C=C(/CS)CNCCCCNCCCCNCCCCNCCCCNCC [PrC-117] | 86 | 3 | 11 | ~3.0 | 0.32 | 0.24 | distribution within cell cycle compartments after drug removal (23SK skin cells; 72 hr treatment, then 48 hr in drug-free medium (FIG. 5D)): basically returned to that seen in cells previously untreated; cells in G1 compartment (23SK skin cells; treated 72 hr (FIG. 5C)): 86.23%; cells in S+G2 compartments (23SK skin cells; treated 72 hr (FIG. 5C)): 13.77%; IC50 (DNA; [7]): 57 µM
 | CCNCCCCNCCCCNCC=C(CO)CNCCCCNCCCCNCC [PrC-118] |  |  |  |  | 78 |  | 
89 | CCNCCCCNCCCCNCC=C(CNC)CNCCCCNCCCCNCC [PrC-119] |  |  |  | 1.80 | 470 | 202 | 
131 | CCNCCCCNCCCCNCCCCNCC=C(CS)CNCCCCNCCCCNCCCCNCC [PrC-123] | 68 | 21 | 10 | 2.22 |  |  | IC50 (DNA; [7]): 117 µM
 | NCC(CN)CS [PrC-211, 3-amino-2-aminomethyl-propane-1-thiol] |  |  |  |  |  |  | Dermatitis Score (% of irradiated field free of scab material) ([2]; 1400 mM PrC-211, vehicle 0:95:5 (ditto mark), cage 488): 60 ± 12%; concentration of topical aminothiol alone conferring complete protection against radiodermatitis ([2]; aminothiol alone, without epinephrine, 8.7 Gy): ~2200 mM
2600 | NCCCNCCCCNCCCN [Spermine, spermine, reference compound] |  |  |  |  |  |  | IC50 for DNA binding/precipitation relative to most chemoprotective polyamines (DNA; spermine versus chemoprotective polyamines of Table 2): ~1,000 fold

From patent US7314959B2, “Amino thiol compounds and compositions for use in conjunction with cancer therapy” (Wisconsin Alumni Research Foundation, priority 2003, dated 2008)
